Measured values published in ChEMBL document CHEMBL4765241, “Identification and Preclinical Pharmacology of ((1 R,3 S)-1-Amino-3-(( S)-6-(2-methoxyphenethyl)-5,6,7,8-tetrahydronaphthalen-2-yl)cyclopentyl)methanol (BMS-986166): A Differentiated Sphingosine-1-phosphate Receptor 1 (S1P) Modulator Advanced into Clinical Trials” (J Med Chem, 2019).
Active and inactive are the calls of the source. The calls are words filed in the database; no cut-off is given here.

Assays:
[1] = target: Sphingosine 1-phosphate receptor 3 (Homo sapiens, UniProt Q99500); assay: Agonist activity at human recombinant S1P3 expressed in CHO cell membranes assessed as stimulation of [35S]-GTPgammaS binding measured after 45 mins by liquid scintillation counting assay; parameters: species or system Cell membrane
Sequence of Sphingosine 1-phosphate receptor 3 (Q99500 whole entry): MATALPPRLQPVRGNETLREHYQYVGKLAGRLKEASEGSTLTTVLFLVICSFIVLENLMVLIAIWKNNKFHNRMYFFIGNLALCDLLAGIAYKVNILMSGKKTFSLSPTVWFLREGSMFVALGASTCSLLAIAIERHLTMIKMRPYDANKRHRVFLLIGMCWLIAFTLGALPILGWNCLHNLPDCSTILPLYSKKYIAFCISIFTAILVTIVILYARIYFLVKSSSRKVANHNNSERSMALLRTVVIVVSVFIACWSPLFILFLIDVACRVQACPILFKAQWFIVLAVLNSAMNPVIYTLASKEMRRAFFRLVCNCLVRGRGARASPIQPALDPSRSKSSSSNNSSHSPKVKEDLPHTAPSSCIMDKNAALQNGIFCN

[2] = Cardiotoxicity in human iPSC derived cardiomyocytes assessed as reduction in beating rate at 10 nM measured over 2 hrs by multi-electrode array relative to control; assay type: toxicity, cell-based; parameters: scale not given: the % may be the effect or the level left; conditions: stem cell-derived cardiomyocyte, 0.01 µM
[3] = Pulmonary toxicity in Lewis rat assessed as elevation of BAL protein level at 1 mg/kg by advia1800 chemistry analyzer; assay type: organism-based; conditions: in vivo
[4] = Cardiotoxicity in human iPSC derived cardiomyocytes assessed as reduction in beating rate at 1 nM measured over 2 hrs by multi-electrode array relative to control; assay type: toxicity, cell-based; parameters: scale not given: the % may be the effect or the level left; conditions: stem cell-derived cardiomyocyte, 0.001 µM
[5] = Tmax in Beagle dog at 0.3 mg/kg, po or 1 mg/kg, iv; assay type: ADME, organism-based, Canis lupus familiaris; conditions: in vivo
[6] = Tmax in Sprague-Dawley rat at 1 mg/kg, po or 1 mg/kg, iv; assay type: ADME, organism-based; conditions: in vivo
[7] = system: Cerebellar cortex; assay: Induction of remyelination in lysophosphatidylcholine-induced demyelination in wild-type CD1 mouse organotypic cerebellar slice assessed as myelination index at 0.01 to 10 nM incubated for 7 days by immunohistochemistry based three-dimensional brain cell culture assay (reference value: 50%); assay type: functional; conditions: dose 0.01-10 nM, time 7 day
[8] = target: T1, Sphingosine 1-phosphate receptor 4 (Homo sapiens, UniProt O95977); assay: Agonist activity at human recombinant S1P4 expressed in CHO cell membranes assessed as stimulation of [35S]-GTPgammaS binding measured after 45 mins by liquid scintillation counting assay; assay type: functional, Cell membrane
T1 sequence (O95977 whole entry): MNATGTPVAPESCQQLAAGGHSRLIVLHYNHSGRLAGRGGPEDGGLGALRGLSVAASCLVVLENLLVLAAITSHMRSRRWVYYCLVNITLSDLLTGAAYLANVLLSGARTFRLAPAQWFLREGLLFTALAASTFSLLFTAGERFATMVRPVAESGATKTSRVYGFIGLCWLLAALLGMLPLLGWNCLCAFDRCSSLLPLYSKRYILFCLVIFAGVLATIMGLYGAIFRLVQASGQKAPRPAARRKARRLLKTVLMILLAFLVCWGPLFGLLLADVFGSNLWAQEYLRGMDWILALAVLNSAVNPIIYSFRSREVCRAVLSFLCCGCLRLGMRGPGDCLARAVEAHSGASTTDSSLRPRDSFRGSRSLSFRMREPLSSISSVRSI

[9] = Antimigratory activity against human T cells assessed as inhibition of S1P-induced T cell migration preincubated for 10 mins followed by addition of S1P measured after 120 mins by calcein-AM dye based fluorescence analysis; assay type: functional
[10] = Tmax in cynomolgus monkey at 1 mg/kg, po or 1 mg/kg, iv; assay type: ADME, organism-based, Macaca fascicularis; conditions: in vivo
[11] = system: Cerebellar cortex; assay: Induction of remyelination in lysophosphatidylcholine-induced demyelination in wild-type CD1 mouse organotypic cerebellar slice at 0.01 to 10 nM incubated for 7 days by immunohistochemistry based three-dimensional brain cell culture assay; assay type: functional, tissue-based; conditions: dose 0.01-10 nM, time 7.0 day
[12] = Ratio of drug metabolism in Lewis rat blood assessed as phosphate ester metabolite to parent drug at 2 mg/kg, po measured at 24 hrs by LC-MS/MS analysis; assay type: ADME, organism-based; conditions: in vivo
[13] = system: Rattus norvegicus; assay: Reduction in circulating lymphocytes in Lewis rat blood at 2 mg/kg, po measured at 24 hrs by hematology analyzer based analysis; assay type: functional; parameters: scale not given: the % may be the effect or the level left
[14] = Half-life in Lewis rat at 2 mg/kg, po measured over 72 hrs by LC-MS/MS analysis; assay type: ADME, organism-based; conditions: in vivo
[15] = system: Rattus norvegicus; assay: Reduction in circulating lymphocytes in Lewis rat blood at 2 mg/kg, po measured at 4 hrs by hematology analyzer based analysis; assay type: functional; parameters: scale not given: the % may be the effect or the level left
[16] = system: Rattus norvegicus; assay: Drug metabolism in Lewis rat blood assessed as concentration of phosphate ester metabolite formation at 2 mg/kg, po measured at 4 hrs by LC-MS/MS analysis; conditions: in vivo
[17] = system: Rattus norvegicus; assay: Reduction in circulating lymphocytes in Lewis rat blood assessed as effective dose after oral dosing measured at 24 hrs by hematology analyzer based analysis; assay type: functional
[18] = Drug metabolism in Lewis rat blood assessed as concentration of parent compound at 2 mg/kg, po measured at 24 hrs by LC-MS/MS analysis; assay type: ADME, organism-based; conditions: read-out: Ct
[19] = Pulmonary toxicity in Lewis rat assessed as elevation of BAL protein level at 25 mg/kg by advia1800 chemistry analyzer; assay type: organism-based; conditions: in vivo
[20] = Drug metabolism in Lewis rat blood assessed as concentration of parent compound at 2 mg/kg, po measured at 4 hrs by LC-MS/MS analysis; assay type: ADME, organism-based; conditions: read-out: Ct

With `CCCCCC[C@@H]1CCc2cc([C@H]3CC[C@](N)(COP(=O)(O)O)C3)ccc2C1` the EC50 [1] was > 1000 nM.

Work on `O=C(O)C[C@H]1CCCN(C[C@@H](O)c2ccc(-c3noc(-c4onc(-c5ccccc5)c4C(F)(F)F)n3)cc2)C1` yielded an Activity [2] of 57%, an Activity [3] of 24.3 mg/dL and an Activity [4] of 36%.

For `COc1ccccc1CC[C@@H]1CCc2cc([C@H]3CC[C@](N)(COP(=O)(O)O)C3)ccc2C1`, the EC50 [1] was > 1000 nM, the Tmax [5] was 6 h and the Tmax [6] was 6 h. It also gave an Activity [2] of 27%, an Activity [7] of 100% and an EC50 [8] of 3.4 nM. For the same molecule, the IC50 [9] was 0.6 nM, the Activity [4] was 11% and the Tmax [10] was 6 h. For the same molecule, the Activity [11] was “Active”.

In the case of `COc1ccc(CC[C@H]2CCc3cc([C@H]4CC[C@](N)(CO)C4)ccc3C2)cc1`, the Ratio [12] is reported as 0.75, the Activity [13] is reported as 84% and the half-life [14] is reported as 7 h. It also gave an Activity [15] of 33%, a Drug metabolism [16] of 10 nM and an ED50 [17] of 0.6 mg/kg. For the same molecule, the concentration at 24 h [18] was 40 nM, the Activity [19] was 24.3 mg/dL and the concentration at 4 h [20] was 170 nM.
